{
  "source": "patent US10687543B2",
  "about": "“Probiotic bacterial molecules and their use in methods to treat/prevent infection by harmful bacteria and to provide nutritional health” (priority 2008, dated 2020)",
  "test_system": "E. coli O157:H7 strain VS94",
  "assay_type": "cell-based, Escherichia coli O157:H7",
  "data": [
    {"smiles": "CC(C)NCC(O)COc1cccc2ccccc12", "note": "(stereo not drawn) [β-blocker, propanolol]", "values": [
      {"measurement": "% Adherence", "result": 22, "unit": "%"}
    ]}
  ]
}
